Among the data in ChEMBL document CHEMBL4813962, “Design, synthesis and biological evaluation of sulfamoylphenyl-quinazoline derivatives as potential EGFR/CAIX dual inhibitors” (Eur J Med Chem, 2021) are IC50 values, retold here.

One assay concerns A549. Nature of the assay: cells. Particulars: Homo sapiens, A549, 72 h. The format is functional, cell-based.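 Note: antiproliferative effect read out as loss of cell viability by MTT assay.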
In a further assay the test system is A-431. Nature of the assay: cells. The conditions noted are these: Homo sapiens, A-431, 72 h. The format is functional, cell-based.
The next assay concerns NCI-H1975. Nature of the assay: Antiproliferative activity against human NCI-H1975 cells assessed as reduction in cell viability incubated for 72 hrs by MTT assay. The conditions noted are these: NCI-H1975, 72 h. The format is functional, cell-based. In general terms: Tetrazolium dyes change colour on reduction, which living cells bring about.
Assay [1] concerns the target Epidermal growth factor receptor (Homo sapiens, UniProt P00533).
Description: Inhibition of recombinant human N-terminal GST-tagged EGFR (669 to 1210 residues) expressed in baculovirus expression system using peptide as substrate incubated for 2 hrs followed by substrate addition and measured after 30 mins by TR-FRET assay
In assay [2] the target is Epidermal growth factor receptor (Homo sapiens, UniProt P00533, T790M).

By IC50 is commonly meant the concentration that gives 50% inhibition.

Sequence of Epidermal growth factor receptor (Homo sapiens, UniProt P00533, T790M) (P00533 25-1210 T790M limits assumed): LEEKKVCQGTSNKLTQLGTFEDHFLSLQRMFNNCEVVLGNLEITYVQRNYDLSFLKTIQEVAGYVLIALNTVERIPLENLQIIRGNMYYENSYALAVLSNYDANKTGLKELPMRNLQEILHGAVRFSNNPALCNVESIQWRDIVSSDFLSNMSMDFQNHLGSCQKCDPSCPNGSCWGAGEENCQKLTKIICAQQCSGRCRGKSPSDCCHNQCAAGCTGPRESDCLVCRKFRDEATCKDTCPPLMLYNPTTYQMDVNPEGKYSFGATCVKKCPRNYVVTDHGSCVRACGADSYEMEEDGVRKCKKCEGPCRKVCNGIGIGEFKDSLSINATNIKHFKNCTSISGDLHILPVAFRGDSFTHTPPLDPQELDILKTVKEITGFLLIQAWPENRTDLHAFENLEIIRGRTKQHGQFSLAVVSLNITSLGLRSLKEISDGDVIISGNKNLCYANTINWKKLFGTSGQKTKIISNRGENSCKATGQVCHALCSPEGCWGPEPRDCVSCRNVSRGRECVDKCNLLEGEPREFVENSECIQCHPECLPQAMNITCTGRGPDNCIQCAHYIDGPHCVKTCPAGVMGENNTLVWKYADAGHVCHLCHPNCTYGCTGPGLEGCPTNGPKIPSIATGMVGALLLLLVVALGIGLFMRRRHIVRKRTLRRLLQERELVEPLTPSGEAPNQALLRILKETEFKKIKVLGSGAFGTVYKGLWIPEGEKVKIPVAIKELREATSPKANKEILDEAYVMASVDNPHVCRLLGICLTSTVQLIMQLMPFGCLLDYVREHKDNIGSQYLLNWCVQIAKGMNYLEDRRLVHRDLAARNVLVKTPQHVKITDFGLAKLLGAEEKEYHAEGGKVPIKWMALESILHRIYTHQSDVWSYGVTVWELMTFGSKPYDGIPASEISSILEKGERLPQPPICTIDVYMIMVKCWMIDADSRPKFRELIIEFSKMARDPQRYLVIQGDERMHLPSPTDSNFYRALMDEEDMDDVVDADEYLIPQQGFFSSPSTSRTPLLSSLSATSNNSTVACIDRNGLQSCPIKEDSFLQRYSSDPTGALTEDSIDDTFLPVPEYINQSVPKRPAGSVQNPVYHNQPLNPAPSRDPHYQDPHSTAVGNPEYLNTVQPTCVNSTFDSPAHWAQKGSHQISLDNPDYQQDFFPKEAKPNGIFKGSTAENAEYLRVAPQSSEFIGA
Sequence of Epidermal growth factor receptor (Homo sapiens, UniProt P00533) (P00533 whole entry): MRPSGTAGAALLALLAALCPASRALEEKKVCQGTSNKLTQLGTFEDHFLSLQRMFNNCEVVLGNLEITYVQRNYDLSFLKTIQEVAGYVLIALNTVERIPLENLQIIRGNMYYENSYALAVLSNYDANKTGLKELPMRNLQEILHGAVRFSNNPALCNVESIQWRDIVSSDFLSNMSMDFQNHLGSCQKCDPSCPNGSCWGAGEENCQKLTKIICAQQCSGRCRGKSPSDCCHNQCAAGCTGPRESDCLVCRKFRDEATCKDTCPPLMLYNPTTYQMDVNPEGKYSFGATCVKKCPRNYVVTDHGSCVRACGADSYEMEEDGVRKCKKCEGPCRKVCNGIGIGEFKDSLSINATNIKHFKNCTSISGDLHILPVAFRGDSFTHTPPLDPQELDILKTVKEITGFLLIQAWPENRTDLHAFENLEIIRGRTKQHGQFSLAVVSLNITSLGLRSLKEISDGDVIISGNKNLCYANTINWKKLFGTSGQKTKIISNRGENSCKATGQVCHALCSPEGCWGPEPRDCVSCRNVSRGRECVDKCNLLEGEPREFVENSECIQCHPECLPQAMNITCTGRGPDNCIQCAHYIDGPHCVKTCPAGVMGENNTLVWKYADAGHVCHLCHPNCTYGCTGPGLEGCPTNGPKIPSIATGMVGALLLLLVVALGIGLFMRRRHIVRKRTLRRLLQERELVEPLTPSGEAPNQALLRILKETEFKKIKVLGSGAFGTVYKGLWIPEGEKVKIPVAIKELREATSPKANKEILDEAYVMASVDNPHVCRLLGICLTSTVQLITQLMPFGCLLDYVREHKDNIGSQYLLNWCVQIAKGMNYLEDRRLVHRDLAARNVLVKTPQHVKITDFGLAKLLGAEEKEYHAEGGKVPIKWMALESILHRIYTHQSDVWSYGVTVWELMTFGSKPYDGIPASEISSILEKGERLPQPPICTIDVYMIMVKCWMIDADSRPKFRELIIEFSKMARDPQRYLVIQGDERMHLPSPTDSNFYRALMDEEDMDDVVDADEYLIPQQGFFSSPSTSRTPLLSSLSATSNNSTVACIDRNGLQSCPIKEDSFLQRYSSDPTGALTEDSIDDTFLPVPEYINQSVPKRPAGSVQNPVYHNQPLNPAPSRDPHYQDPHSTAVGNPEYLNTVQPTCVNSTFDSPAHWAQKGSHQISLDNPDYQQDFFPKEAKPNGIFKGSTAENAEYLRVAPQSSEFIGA
Description for A-431: Antiproliferative activity against human A-431 cells assessed as reduction in cell viability incubated for 72 hrs by MTT assay

On to `COc1cc2ncnc(Nc3ccc(OC(F)(F)F)cc3)c2cc1OCCCCC(=O)Nc1ccc(S(N)(=O)=O)cc1`, for which the IC50 in the assay on A549 is greater than 40 µM; in the assay with A-431, 22.4 µM; in the assay with NCI-H1975, 8.77 µM.

Consider `COc1cc2ncnc(Nc3cccc(Cl)c3F)c2cc1OCCCCC(=O)Nc1ccc(S(N)(=O)=O)cc1`, for which the IC50 came to 10.5 µM with A549; 5.56 µM with A-431; 6.93 µM in the assay on NCI-H1975; 0.0348 µM in assay [1]; 0.018 µM in assay [2].

`NS(=O)(=O)c1ccc(NC(=S)Nc2ccc3ncnc(Nc4cccc(F)c4)c3c2)cc1`: the IC50 was determined as 25.9 µM in the assay on A549, 30.1 µM in the assay with A-431 and 9.66 µM in the assay with NCI-H1975.

For `COc1ccc(Nc2ncnc3cc(OC)c(OCCCCC(=O)Nc4ccc(S(N)(=O)=O)cc4)cc23)cc1OC`, the IC50 is greater than 40 µM in the assay with A549, 35.4 µM in the assay on A-431 and 9.23 µM in the assay with NCI-H1975.

With `NS(=O)(=O)c1ccc(NC(=S)Nc2ccc3ncnc(Nc4ccc(C(F)(F)F)cc4)c3c2)cc1`, the values for the IC50 in the assay with A549, in the assay on A-431 and in the assay with NCI-H1975 were greater than 40 µM, 18 µM and 17.1 µM, respectively.

Regarding `Cc1cccc(Nc2ncnc3ccc(NC(=S)Nc4ccc(S(N)(=O)=O)cc4)cc23)c1`, the IC50 in the assay on A549 is greater than 40 µM; in the assay with A-431, 23.8 µM; in the assay with NCI-H1975 it was 35.4 µM.

`COc1cc2ncnc(Nc3ccc(C)cc3)c2cc1OCCCCC(=O)Nc1ccc(S(N)(=O)=O)cc1`: the values for the IC50 in the assay on A549, in the assay with A-431 and with NCI-H1975 were greater than 40 µM, 35.5 µM and 19.2 µM, respectively.

As for `COc1cc2ncnc(Nc3cccc(Br)c3)c2cc1OCCCCC(=O)Nc1ccc(S(N)(=O)=O)cc1`, the IC50 with A549 came to 14.9 µM; with A-431 it was 9.75 µM; with NCI-H1975 it was 11.4 µM.

With `NS(=O)(=O)c1ccc(NC(=S)Nc2ccc3ncnc(Nc4ccc(Cl)c(C(F)(F)F)c4)c3c2)cc1`, the figures for the IC50 in the assay with A549, with A-431 and in the assay with NCI-H1975 were 4.5 µM, 18.2 µM and 11.8 µM, respectively.

Take `Cc1ccc(Nc2ncnc3ccc(NC(=S)NCCc4ccc(S(N)(=O)=O)cc4)cc23)cc1`: the IC50 stood at 14.7 µM with A549, 13.1 µM with A-431 and 10.2 µM with NCI-H1975.

Consider `COc1cc2ncnc(Nc3ccc(OCc4cccc(F)c4)c(Cl)c3)c2cc1OCCCCC(=O)Nc1ccc(S(N)(=O)=O)cc1`, for which the IC50 with A549 is 7.86 µM; in the assay with A-431, 7.79 µM; in the assay on NCI-H1975, 5.67 µM; in assay [1] it was 0.0165 µM; in assay [2] it was 0.0228 µM.

As for `C#Cc1cccc(Nc2ncnc3cc(OC)c(OCCCCC(=O)Nc4ccc(S(N)(=O)=O)cc4)cc23)c1`, the IC50 in the assay on A549 was 7.72 µM; with A-431 it was 17.7 µM; in the assay on NCI-H1975, 18.8 µM; in assay [1], 0.0492 µM; in assay [2] it was 0.0485 µM.

For the compound `COc1cc2ncnc(Nc3cccc(Cl)c3)c2cc1OCCCCC(=O)Nc1ccc(S(N)(=O)=O)cc1`, the figures for the IC50 in the assay with A549, in the assay on A-431 and with NCI-H1975 were 11.2 µM, 30.4 µM and 33.2 µM, respectively.

Take `NS(=O)(=O)c1ccc(NC(=S)Nc2ccc3ncnc(Nc4ccc(OCc5cccc(F)c5)c(Cl)c4)c3c2)cc1`: the values for the IC50 with A549, in the assay with A-431 and in the assay on NCI-H1975 were greater than 40 µM, 29.5 µM and 10.3 µM, respectively.

`NS(=O)(=O)c1ccc(CCNC(=S)Nc2ccc3ncnc(Nc4cccc(Br)c4)c3c2)cc1`: the figures for the IC50 in the assay on A549, with A-431 and in the assay with NCI-H1975 were 9.36 µM, 17.3 µM and 10.8 µM, respectively.

In the case of `COc1cc2ncnc(Nc3ccc(Br)cc3)c2cc1OCCCCC(=O)Nc1ccc(S(N)(=O)=O)cc1`, the IC50 with A549 was greater than 40 µM; with A-431 it was 6.57 µM; in the assay with NCI-H1975, 23.3 µM.

As for `COc1ccccc1Nc1ncnc2cc(OC)c(OCCCCC(=O)Nc3ccc(S(N)(=O)=O)cc3)cc12`, the IC50 in the assay on A549 was 24.1 µM; in the assay with A-431, 24.2 µM; in the assay on NCI-H1975, 8.03 µM.

For the compound `COc1cc2ncnc(Nc3ccc(F)c(Br)c3)c2cc1OCCCCC(=O)Nc1ccc(S(N)(=O)=O)cc1`, the IC50 was 16 µM with A549, 8.02 µM in the assay with A-431 and 31.6 µM in the assay with NCI-H1975.

On to `NS(=O)(=O)c1ccc(NC(=S)Nc2ccc3ncnc(Nc4cccc(Cl)c4)c3c2)cc1`, for which the results for the IC50 in the assay on A549, in the assay with A-431 and with NCI-H1975 were greater than 40 µM, 15 µM and 39.8 µM, respectively.

As for `NS(=O)(=O)c1ccc(NC(=S)Nc2ccc3ncnc(Nc4cccc(Br)c4)c3c2)cc1`, the IC50 stood at 25 µM in the assay with A549, 20.7 µM with A-431 and 11 µM with NCI-H1975.

In the case of `NS(=O)(=O)c1ccc(CCNC(=S)Nc2ccc3ncnc(Nc4ccc(F)c(Br)c4)c3c2)cc1`, the IC50 in the assay on A549 was 5.4 µM; in the assay with A-431, 21.1 µM; in the assay on NCI-H1975, 9.43 µM.

On to `CCc1ccc(Nc2ncnc3cc(OC)c(OCCCCC(=O)Nc4ccc(S(N)(=O)=O)cc4)cc23)cc1`, for which the IC50 with A549 was 12.1 µM; in the assay on A-431 it was 7.22 µM; in the assay with NCI-H1975, 10.3 µM.

Consider `NS(=O)(=O)c1ccc(CCNC(=S)Nc2ccc3ncnc(Nc4ccc(F)c(Cl)c4)c3c2)cc1`, for which the IC50 stood at 4.18 µM in the assay on A549, 16.7 µM in the assay with A-431 and 11.4 µM in the assay with NCI-H1975.

As for `NS(=O)(=O)c1ccc(CCNC(=S)Nc2ccc3ncnc(Nc4ccc(Cl)c(C(F)(F)F)c4)c3c2)cc1`, the IC50 in the assay on A549 worked out at 30.4 µM; with A-431 it was 21.2 µM; with NCI-H1975, 39.5 µM.

In the case of `COc1cc2ncnc(Nc3ccccc3)c2cc1OCCCCC(=O)Nc1ccc(S(N)(=O)=O)cc1`, the IC50 was greater than 40 µM in the assay on A549, 25.2 µM in the assay with A-431 and 14.1 µM in the assay on NCI-H1975.

Regarding `COc1cc2ncnc(Nc3cccc(F)c3)c2cc1OCCCCC(=O)Nc1ccc(S(N)(=O)=O)cc1`, the IC50 in the assay on A549 was greater than 40 µM; with A-431, 29.9 µM; with NCI-H1975, greater than 40 µM.

Consider `CCc1ccc(Nc2ncnc3ccc(NC(=S)NCCc4ccc(S(N)(=O)=O)cc4)cc23)cc1`, for which the IC50 in the assay on A549 stood at 16.6 µM; in the assay on A-431, 39.6 µM; with NCI-H1975, 9.36 µM.

As to `COc1ccc(Nc2ncnc3cc(OC)c(OCCCCC(=O)Nc4ccc(S(N)(=O)=O)cc4)cc23)cc1`, the IC50 with A549 was greater than 40 µM; in the assay on A-431 it was 14.7 µM; in the assay on NCI-H1975 it was 30.2 µM.

Consider `NS(=O)(=O)c1ccc(NC(=S)Nc2ccc3ncnc(Nc4cccc(Cl)c4F)c3c2)cc1`, for which the IC50 was greater than 40 µM in the assay with A549, 13.1 µM in the assay on A-431 and 25.1 µM with NCI-H1975.

In the case of `NS(=O)(=O)c1ccc(CCNC(=S)Nc2ccc3ncnc(Nc4ccc(C(F)(F)F)cc4)c3c2)cc1`, the IC50 in the assay on A549 was 32.4 µM; in the assay with A-431 it was 26.7 µM; with NCI-H1975 it was 13 µM.

As to `COc1cc2ncnc(Nc3ccc(F)cc3)c2cc1OCCCCC(=O)Nc1ccc(S(N)(=O)=O)cc1`, the IC50 with A549 is greater than 40 µM; in the assay with A-431, 18.6 µM; in the assay on NCI-H1975 it was greater than 40 µM.

On to `COc1cc2ncnc(Nc3cccc(C)c3)c2cc1OCCCCC(=O)Nc1ccc(S(N)(=O)=O)cc1`, for which the results for the concentration for half-maximal inhibition (IC50) in the assay on A549, in the assay on A-431 and in the assay with NCI-H1975 were 16 µM, 7.46 µM and 32.1 µM, respectively.

For `NS(=O)(=O)c1ccc(CCNC(=S)Nc2ccc3ncnc(Nc4cccc(Cl)c4)c3c2)cc1`, the IC50 in the assay on A549 was 2.77 µM; with A-431, 14.8 µM; with NCI-H1975, 11 µM.

As to `C#Cc1cccc(Nc2ncnc3ccc(NC(=S)NCCc4ccc(S(N)(=O)=O)cc4)cc23)c1`, the IC50 was 3.87 µM in the assay with A549, 12.5 µM with A-431 and 12.7 µM in the assay with NCI-H1975.

Take `COc1cc2ncnc(Nc3ccc(Cl)cc3)c2cc1OCCCCC(=O)Nc1ccc(S(N)(=O)=O)cc1`: the figures for the IC50 in the assay on A549, in the assay on A-431 and in the assay with NCI-H1975 were greater than 40 µM, 7.12 µM and 31.8 µM, respectively.

Take `NS(=O)(=O)c1ccc(CCNC(=S)Nc2ccc3ncnc(Nc4cccc(Cl)c4F)c3c2)cc1`: the IC50 in the assay with A549 was 4.53 µM; in the assay on A-431 it was 4.21 µM; in the assay on NCI-H1975, 13 µM.

On to `NS(=O)(=O)c1ccc(NC(=S)Nc2ccc3ncnc(Nc4ccc(F)c(Cl)c4)c3c2)cc1`, for which the results for the IC50 in the assay on A549, with A-431 and in the assay on NCI-H1975 were greater than 40 µM, 37.6 µM and 15.8 µM, respectively.

Regarding `C#Cc1cccc(Nc2ncnc3cc(OCCOC)c(OCCOC)cc23)c1` [ERLOTINIB], the IC50 came out at 16.4 µM in the assay with A549, 11.8 µM in the assay with A-431 and 13.1 µM in the assay with NCI-H1975.

As for `C#Cc1cccc(Nc2ncnc3ccc(NC(=S)Nc4ccc(S(N)(=O)=O)cc4)cc23)c1`, the IC50 in the assay with A549 is greater than 40 µM; with A-431, 15.3 µM; in the assay on NCI-H1975, 13.4 µM.

Regarding `NS(=O)(=O)c1ccc(CCNC(=S)Nc2ccc3ncnc(Nc4cccc(F)c4)c3c2)cc1`, the values for the IC50 in the assay on A549, in the assay on A-431 and in the assay on NCI-H1975 were 5.51 µM, 9.94 µM and 35.7 µM, respectively.

As for `NS(=O)(=O)c1ccc(NC(=S)Nc2ccc3ncnc(Nc4ccc(F)c(Br)c4)c3c2)cc1`, the IC50 in the assay on A549 was greater than 40 µM; in the assay with A-431, 18.2 µM; in the assay with NCI-H1975, 9.98 µM.

For `COc1cc2ncnc(Nc3ccc(C(F)(F)F)cc3)c2cc1OCCCCC(=O)Nc1ccc(S(N)(=O)=O)cc1`, the IC50 in the assay with A549 was 14.8 µM; with A-431 it was 16.9 µM; in the assay on NCI-H1975, 12 µM.

Take `Cc1cccc(Nc2ncnc3ccc(NC(=S)NCCc4ccc(S(N)(=O)=O)cc4)cc23)c1`: the values for the IC50 in the assay on A549, in the assay on A-431 and in the assay on NCI-H1975 were 7.05 µM, 16 µM and 20.8 µM, respectively.

As to `Cc1ccc(Nc2ncnc3ccc(NC(=S)Nc4ccc(S(N)(=O)=O)cc4)cc23)cc1`, the values for the IC50 with A549, with A-431 and with NCI-H1975 were 2.84 µM, 40 µM and 39.4 µM, respectively.

For `COc1cc2ncnc(Nc3cc(F)c(F)c(F)c3)c2cc1OCCCCC(=O)Nc1ccc(S(N)(=O)=O)cc1`, the IC50 is greater than 40 µM in the assay with A549, 23.4 µM in the assay on A-431 and 20 µM in the assay with NCI-H1975.

With `CCc1ccc(Nc2ncnc3ccc(NC(=S)Nc4ccc(S(N)(=O)=O)cc4)cc23)cc1`, the IC50 in the assay on A549 amounted to 24.6 µM; in the assay with A-431 it was 38.4 µM; with NCI-H1975, 38.7 µM.
